Key:
[1] = test system: morphine-induced vomiting in dogs; assay: Morphine-induced vomiting in dogs, oral dosing; format: in vivo, beagle dogs; settings: morphine 0.3 mg/kg subcutaneous
Protocol: Male 6 or 7 beagle dogs (8.8 to 14.5 kg) per one group were used. Morphine was subcutaneously administered at 0.3 mg/0. 03 ml/kg. 2.5 hours before morphine dosing, a small amount of a feed was given to the animals. 30 minutes thereafter, predetermined doses of the compound No. 3 were orally given. To a control animal group under no fasting was orally given a predetermined volume of 0.5 % methyl cellulose solution. A predetermined dose of ondansetron was orally given to the animals under fasting. To a control animal group of ondansetron under fasting was orally given a predetermined volume of physiological saline. The frequency of vomiting was counted up to 30 minutes after morphine dosing.
The compound No. 3 was suspended in 0.5 % methyl cellulose solution and was then orally administered at a ratio of 1 ml per 1 kg body weight. An injection of ondansetron at a concentration of 0.2 w/v % was orally dosed. Additionally, 0.5 % methyl cellulose solution was orally given at a ratio of 1 ml per 1 kg body weight, while physiological saline was orally given at a ratio of 0.5 ml per 1 kg body weight. The data relating to the frequency of vomiting, the time period (latency) until first vomiting and the time period from the occurrence of vomiting to the termination thereof were statistically analyzed by the Dunnett test or t test, with reference to the difference from the control group.
The retching suppression ratio and vomiting suppression ratio were calculated by the following formula. [Frequency of retching or vomiting in control] - [Frequency of retching or vomiting in animals dosed with compound No. 3] / [Frequency of retching or vomiting in control] x 100 (%) [formula]

[2] = test system: cisplatin-induced acute vomiting in dogs; assay: Cisplatin-induced acute vomiting in dogs, compound orally given; format: in vivo, beagle dogs; settings: cisplatin 3 mg/kg i.v.; for Duration of vomiting (in hour;, mean ± SD) / Frequency of vomiting (mean ± SD) / Number of dogs with vomiting/number of tested dogs / Time period until first vomiting (in hour;, mean ± SD): 5 hours
Protocol: 3 or 4 beagle dogs (7.9 to 13.3 kg), male or female, were used per one group. Cisplatin was intravenously administered at 3 mg/3 ml/kg. One hour before cisplatin dosing, a small volume of a feed was given to the animals. 30 minutes before cisplatin administration, predetermined doses of the compound No. 3 were orally given. Similarly, 0.5 % methyl cellulose solution was orally given to the control animals under no fasting. The frequency of vomiting was counted in number, up to 5 hours after cisplatin dosing.
The compound No. 3 was suspended in 0.5 % methyl cellulose solution to predetermined concentrations, for oral dosing at a ratio of 1 ml per 1 kg body weight. Additionally, the 0.5 % methyl cellulose solution was orally given at a ratio of 1 ml per 1 kg body weight. The data relating to the frequency of vomiting, the time period (latency) until first vomiting and the time period from the occurrence of vomiting to the termination thereof were statistically analyzed by the Dunnett test, with reference to the difference from the control group.
(§1) The acute retching suppression ratio and acute vomiting suppression ratio were calculated by the following formula. [Frequency of retching or vomiting in control] - [Frequency of retching or vomiting in animals dosed with the compound No. 3] / [Frequency of retching or vomiting in control] x 100 (%) [formula]

[3] = test system: acute vomiting induced by cisplatin in ferrets; assay: Acute vomiting induced by cisplatin in ferrets, compound orally given; format: in vivo; settings: cisplatin 10 mg/kg i.p.; for Duration of retching (in hour; mean ± SD) / Duration of vomiting (in hour;, mean ± SD) / Frequency of retching (mean ± SD) / Frequency of vomiting (mean ± SD) / Number of ferrets with retching /number of tested ferrets / Number of ferrets with vomiting /number of tested ferrets / Time period until first retching (in hour; ± mean SD) / Time period until first vomiting (in hour;, mean ± SD): 5 hours
Protocol: 5 to 6 male ferrets (1.2 to 2.3 kg) per one group were used. Cisplatin was intraperitoneally given at 10 mg/10 ml/kg. One hour prior to cisplatin administration, a small volume of a feed was given to the animals. 30 minutes prior to cisplatin administration, predetermined doses of the compound No. 3 were orally given. Similarly, 0.5 % methyl cellulose (MC) solution was orally given to a control animal group under no fasting. The frequency of vomiting was counted in number, up to 5 hours after cisplatin administration.
The compound No. 3 was suspended in 0.5 % methyl cellulose solution to predetermined concentrations, for oral dosing at a ratio of 1 ml per 1 kg body weight. Additionally, 0.5% methyl cellulose solution was orally given at a ratio of 1 ml per 1 kg body weight. The data relating to the frequency of vomiting, the time period (latency) until first vomiting and the time period from the occurrence of vomiting to the termination thereof were statistically analyzed by the Dunnett test, with reference to the difference from the control group.
as §1

[4] = 1 mg/kg p.o., under fasting, 30 minutes

SMILES: Cc1nccn1CC1CCc2c(c3ccccc3n2C)C1=O (stereo not shown) [Ondansetron, ondansetron, reference compound]
- Acute vomiting suppression ratio ([1]; 1 mg/kg p.o.): 48 % NS
- Effect on vomiting (in words) ([1]; 1 mg/kg p.o.): did not suppress
- B: Frequency of vomiting (mean ± SD) [1, 4]: 1.7 ± 0.3
- C: Time period until first vomiting (minute; mean ± SD) [1, 4]: 5.0 ± 1.0 min
- D: Duration of vomiting (minute; mean ± SD) [1, 4]: 1.0 ± 0.6 min
- Number of dogs with vomiting/number of tested dogs [1, 4]: 3/3

SMILES: Cc1ccc(-c2c3n(c(=O)c4ncccc24)CC[C@@H](C)CN(Cc2cc(C(F)(F)F)cc(C(F)(F)F)c2)C3=O)cc1 [Cpd. No.3, (9R)-7-[3,5-bis(trifluoromethyl)benzyl]-6,7,8,9,10,11-hexahydro-9-methyl-5-(4-methylphenyl)-6,13-dioxo-13H-[1,4]diazocino[2,1-g][1,7]naphthylidine]
- Suppression ratio of acute vomiting ([2]; 1 mg/kg p.o.): 18 % NS
- Duration of vomiting (in hour;, mean ± SD) ([2]; 1 mg/kg p.o.): 1.5 ± 0.2 h
- Frequency of vomiting (mean ± SD) ([2]; 1 mg/kg p.o.): 11.3 ± 0.5
- Number of dogs with vomiting/number of tested dogs ([2]; 1 mg/kg p.o.): 4/4
- Time period until first vomiting (in hour;, mean ± SD) ([2]; 1 mg/kg p.o.): 1.6 ± 0.2 h
- Effect on cisplatin-induced vomiting (in words) ([2]; 3 mg/kg or higher p.o.): significantly suppressed
- Suppression ratio of acute vomiting ([2]; 3 mg/kg p.o.): 54 % NS
- Duration of vomiting (in hour;, mean ± SD) ([2]; 3 mg/kg p.o.): 1.1 ± 0.2 h
- Frequency of vomiting (mean ± SD) ([2]; 3 mg/kg p.o.): 6.3 ± 0.8 a
- Number of dogs with vomiting/number of tested dogs ([2]; 3 mg/kg p.o.): 4/4
- Time period until first vomiting (in hour;, mean ± SD) ([2]; 3 mg/kg p.o.): 1.9 ± 0.1 h
- Effect on cisplatin-induced vomiting (in words) ([2]; 10 mg/kg p.o.): almost completely suppressed
- Effect on the latency (in words) ([2]; 10 mg/kg p.o.): prolonged
- Suppression ratio of acute vomiting ([2]; 10 mg/kg p.o.): 93 % b
- Duration of vomiting (in hour;, mean ± SD) ([2]; 10 mg/kg p.o.): 0.2 ± 0.2 a hour
- Frequency of vomiting (mean ± SD) ([2]; 10 mg/kg p.o.): 1.0 ± 0.7 a
- Number of dogs with vomiting/number of tested dogs ([2]; 10 mg/kg p.o.): 2/4
- Time period until first vomiting (in hour;, mean ± SD) ([2]; 10 mg/kg p.o.): 3.6 ± 0.8 a hour
- Acute vomiting suppression ratio ([1]; 0.1 mg/kg p.o.): 55 % NS
- B: Frequency of vomiting (mean ± 3D) ([1]; 0.1 mg/kg p.o., 30 minutes): 1.0 ± 0
- C: Time period until first vomiting (minute; mean ± SD) ([1]; 0.1 mg/kg p.o., 30 minutes): 8.7 ± 1.2 min
- D: Duration of vomiting (minute; mean ± SD) ([1]; 0.1 mg/kg p.o., 30 minutes): 0 min
- Number of dogs with vomiting/number of tested dogs ([1]; 0.1 mg/kg p.o., 30 minutes): 3/3
- Acute vomiting suppression ratio ([1]; 0.3 mg/kg p.o.): 86 % NS
- Effect on vomiting (in words) ([1]; 0.3 mg/kg p.o.): significantly suppressed
- B: Frequency of vomiting (mean ± 3D) ([1]; 0.3 mg/kg p.o., 30 minutes): 0.3 ± 0.3a
- C: Time period until first vomiting (minute; mean ± SD) ([1]; 0.3 mg/kg p.o., 30 minutes): 22.0 ± 8.0 a minute
- D: Duration of vomiting (minute; mean ± SD) ([1]; 0.3 mg/kg p.o., 30 minutes): 0 min
- Number of dogs with vomiting/number of tested dogs ([1]; 0.3 mg/kg p.o., 30 minutes): 1/3
- Acute vomiting suppression ratio ([1]; 1 mg/kg p.o.): 100 % b
- Effect on vomiting (in words) ([1]; 1 mg/kg p.o.): completely suppressed
- B: Frequency of vomiting (mean ± 3D) ([1]; 1 mg/kg p.o., 30 minutes): 0 b
- C: Time period until first vomiting (minute; mean ± SD) ([1]; 1 mg/kg p.o., 30 minutes): 30 b minute
- D: Duration of vomiting (minute; mean ± SD) ([1]; 1 mg/kg p.o., 30 minutes): 0 min
- Number of dogs with vomiting/number of tested dogs ([1]; 1 mg/kg p.o., 30 minutes): 0/3
- Suppression ratio of acute retching ([3]; 1 mg/kg p.o.): 38 % NS
- Suppression ratio of acute vomiting ([3]; 1 mg/kg p.o.): 22 % NS
- Duration of retching (in hour; mean ± SD) ([3]; 1 mg/kg p.o.): 1.7 ± 0.4 h
- Duration of vomiting (in hour;, mean ± SD) ([3]; 1 mg/kg p.o.): 1.4 ± 0.4 h
- Frequency of retching (mean ± SD) ([3]; 1 mg/kg p.o.): 79.0 ± 15.1
- Frequency of vomiting (mean ± SD) ([3]; 1 mg/kg p.o.): 8.3 ± 2.2
- Number of ferrets with retching /number of tested ferrets ([3]; 1 mg/kg p.o.): 6/6
- Number of ferrets with vomiting /number of tested ferrets ([3]; 1 mg/kg p.o.): 6/6
- Time period until first retching (in hour; ± mean SD) ([3]; 1 mg/kg p.o.): 1.5 ± 0.1 h
- Time period until first vomiting (in hour;, mean ± SD) ([3]; 1 mg/kg p.o.): 1.6 ± 0.1 h
- Effect on vomiting (in words) ([3]; 3 mg/kg p.o.): significantly suppressed
- Suppression ratio of acute retching ([3]; 3 mg/kg p.o.): 53 % b
- Suppression ratio of acute vomiting ([3]; 3 mg/kg p.o.): 27 % NS
- Duration of retching (in hour; mean ± SD) ([3]; 3 mg/kg p.o.): 1.7 ± 0.3 h
- Duration of vomiting (in hour;, mean ± SD) ([3]; 3 mg/kg p.o.): 1.6 ± 0.4 h
- Frequency of retching (mean ± SD) ([3]; 3 mg/kg p.o.): 59.3 ± 12.0 b
- Frequency of vomiting (mean ± SD) ([3]; 3 mg/kg p.o.): 7.8 ± 1.3
- Number of ferrets with retching /number of tested ferrets ([3]; 3 mg/kg p.o.): 6/6
- Number of ferrets with vomiting /number of tested ferrets ([3]; 3 mg/kg p.o.): 6/6
- Time period until first retching (in hour; ± mean SD) ([3]; 3 mg/kg p.o.): 1.6 ± 0.1 h
- Time period until first vomiting (in hour;, mean ± SD) ([3]; 3 mg/kg p.o.): 1.6 ± 0.1 h
- Effect on vomiting (in words) ([3]; 10 mg/kg p.o.): prominently suppressed
- Suppression ratio of acute retching ([3]; 10 mg/kg p.o.): 88 % b
- Suppression ratio of acute vomiting ([3]; 10 mg/kg p.o.): 70 % b
- Duration of retching (in hour; mean ± SD) ([3]; 10 mg/kg p.o.): 2.4 ± 0.5 h
- Duration of vomiting (in hour;, mean ± SD) ([3]; 10 mg/kg p.o.): 1.0 ± 0.4 h
- Frequency of retching (mean ± SD) ([3]; 10 mg/kg p.o.): 14.8 ± 3.7 b
- Frequency of vomiting (mean ± SD) ([3]; 10 mg/kg p.o.): 3.2 ± 1.0 b
- Number of ferrets with retching /number of tested ferrets ([3]; 10 mg/kg p.o.): 5/6
- Number of ferrets with vomiting /number of tested ferrets ([3]; 10 mg/kg p.o.): 5/6
- Time period until first retching (in hour; ± mean SD) ([3]; 10 mg/kg p.o.): 2.1 ± 0.6 h
- Time period until first vomiting (in hour;, mean ± SD) ([3]; 10 mg/kg p.o.): 2.2 ± 0.6 h

Source: patent EP1145714A1, “DRUGS” (Takeda Chemical Industries, Ltd., priority 1998, dated 2000)
